Test results: patent US8471063B2, “Michael systems as transglutaminase inhibitors” (Zedira GmbH, priority 2006, dated 2013)
*1 amine or outer side, *2 acyl side, *3 side chain or, on linkers, in order; H or OH if unused. Where a SMILES comes first, the peptide text is derived from it. [ ]: non-standard residue; d: D form. ξ: configuration not given here. X2 = COC(=O)/C=C/CC[C@H](N[*:1])C(=O)[*:2]; Ile(3ξ) = CCC(C)[C@H](N)C(=O)O

Key:
Assay type in all cases: biochemical
[1] = target: T1, recombinant human tissue transglutaminase (His6-rh-TG2) (Homo sapiens, UniProt P21980); test: Inactivation of human tissue transglutaminase, fluorescence assay, IC50; conditions: Table 1; 5 min preincubation, 37° C.
T1 sequence (P21980 1-687): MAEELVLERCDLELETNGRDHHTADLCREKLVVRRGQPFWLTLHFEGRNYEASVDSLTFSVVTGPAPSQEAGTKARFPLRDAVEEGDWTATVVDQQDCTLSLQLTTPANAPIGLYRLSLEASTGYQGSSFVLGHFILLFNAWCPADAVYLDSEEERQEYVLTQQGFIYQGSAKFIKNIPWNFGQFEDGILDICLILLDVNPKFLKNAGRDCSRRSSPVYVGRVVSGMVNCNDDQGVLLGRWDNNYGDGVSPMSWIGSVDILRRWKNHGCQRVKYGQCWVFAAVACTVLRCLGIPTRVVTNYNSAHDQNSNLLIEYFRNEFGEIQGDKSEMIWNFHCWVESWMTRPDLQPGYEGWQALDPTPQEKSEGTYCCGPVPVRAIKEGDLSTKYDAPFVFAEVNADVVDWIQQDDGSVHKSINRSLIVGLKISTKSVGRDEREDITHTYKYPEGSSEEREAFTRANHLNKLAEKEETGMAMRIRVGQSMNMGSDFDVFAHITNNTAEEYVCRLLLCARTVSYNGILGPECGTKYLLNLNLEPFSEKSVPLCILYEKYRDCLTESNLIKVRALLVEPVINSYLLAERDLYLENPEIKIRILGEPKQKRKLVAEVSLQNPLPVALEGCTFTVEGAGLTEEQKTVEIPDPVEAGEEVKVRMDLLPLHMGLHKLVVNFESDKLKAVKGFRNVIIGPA
Description: 250 μg of lyophilized his-tagged recombinant human tissue transglutaminase (His6-rh-TG2) are reconstituted by the addition of 150 μl of water (resulting buffer 50 mM of NaH2PO4, 150 mM of NaCl, pH=8).
A 10 mM inhibitor stock solution in DMSO is prepared and diluted with buffer (50 mM of Tris-HCl, 10 mM of CaCl2, 5 mM of DTT, pH=7.5, respectively) to the 20-fold of the concentration desired for the inhibition mixture (at least 1/50 dilution resulting in 2% DMSO concentration).
900 μl of an assay solution composed of 55.56 mM of Tris, 11.11 mM of CaCl2, 0.11% PEG8000, 5.56 mM of DTT, 5.56 mM of glycine methyl ester and 50 μM of Abz-APE(CAD-DNP)QEA-OH, (patent number:), pH=7.5 are placed in a cuvette and brought to a temperature of 37° C. in the measuring cell of a spectrophotometer. 50 μl of the respective inhibitor solution are added to said solution (resulting in a concentration of less than 0.2% of DMSO in the mixture).
7 μl of the transglutaminase solution reconstituted above are diluted with 51 μl of buffer (50 mM of Tris, 100 mM of NaCl, 5 mM of DTT, pH=7.5). 50 μl of said enzyme solution (10 μg His6-rhTG2) are added to the assay solution containing the respective inhibitor concentration. The mixture is incubated for 5 min at 37° C. before the measurement is performed. λexc=313 nm and λem=418 nm, 15 min)
The resulting enzyme activity was measured by analyzing the slope of the straight line obtained by the increase in fluorescence.
DMSO is used instead of inhibitor stock solution in order to determine the non-inhibited enzyme activity. IC50 values are determined by plotting the resulting enzyme activity against the logarithm of the inhibitor concentration. IC50 is defined as the concentration of an inhibitor at which enzyme activity is reduced to 50% after 5 min of preincubation.

FXIII = target: T2, FXIII (Homo sapiens, UniProt P00488); test: Transglutaminase inhibition, IC50 at FXIII; conditions: Table 1
T2 sequence (P00488 1-732): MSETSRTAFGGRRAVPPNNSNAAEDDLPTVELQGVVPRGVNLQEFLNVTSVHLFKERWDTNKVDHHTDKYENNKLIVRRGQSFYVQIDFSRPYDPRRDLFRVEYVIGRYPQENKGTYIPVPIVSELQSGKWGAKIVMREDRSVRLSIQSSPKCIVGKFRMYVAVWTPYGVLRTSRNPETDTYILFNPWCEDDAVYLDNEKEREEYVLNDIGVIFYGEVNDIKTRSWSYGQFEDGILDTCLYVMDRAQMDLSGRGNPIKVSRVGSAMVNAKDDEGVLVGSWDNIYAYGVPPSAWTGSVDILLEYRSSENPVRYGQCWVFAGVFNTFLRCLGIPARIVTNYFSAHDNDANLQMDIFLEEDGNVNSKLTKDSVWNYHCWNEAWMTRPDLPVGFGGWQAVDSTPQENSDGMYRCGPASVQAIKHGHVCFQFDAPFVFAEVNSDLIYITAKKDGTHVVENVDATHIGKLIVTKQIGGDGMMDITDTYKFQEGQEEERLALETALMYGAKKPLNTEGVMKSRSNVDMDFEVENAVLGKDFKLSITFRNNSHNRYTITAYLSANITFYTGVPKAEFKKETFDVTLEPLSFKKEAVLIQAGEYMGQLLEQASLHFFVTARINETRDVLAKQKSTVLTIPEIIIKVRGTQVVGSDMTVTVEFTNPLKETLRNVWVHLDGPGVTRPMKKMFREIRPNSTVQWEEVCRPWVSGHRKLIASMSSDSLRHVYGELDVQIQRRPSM

TG1 = target: T3, TG1 (Homo sapiens, UniProt P22735); test: Transglutaminase inhibition, IC50 at TG1; conditions: Table 1
T3 sequence (P22735 1-817): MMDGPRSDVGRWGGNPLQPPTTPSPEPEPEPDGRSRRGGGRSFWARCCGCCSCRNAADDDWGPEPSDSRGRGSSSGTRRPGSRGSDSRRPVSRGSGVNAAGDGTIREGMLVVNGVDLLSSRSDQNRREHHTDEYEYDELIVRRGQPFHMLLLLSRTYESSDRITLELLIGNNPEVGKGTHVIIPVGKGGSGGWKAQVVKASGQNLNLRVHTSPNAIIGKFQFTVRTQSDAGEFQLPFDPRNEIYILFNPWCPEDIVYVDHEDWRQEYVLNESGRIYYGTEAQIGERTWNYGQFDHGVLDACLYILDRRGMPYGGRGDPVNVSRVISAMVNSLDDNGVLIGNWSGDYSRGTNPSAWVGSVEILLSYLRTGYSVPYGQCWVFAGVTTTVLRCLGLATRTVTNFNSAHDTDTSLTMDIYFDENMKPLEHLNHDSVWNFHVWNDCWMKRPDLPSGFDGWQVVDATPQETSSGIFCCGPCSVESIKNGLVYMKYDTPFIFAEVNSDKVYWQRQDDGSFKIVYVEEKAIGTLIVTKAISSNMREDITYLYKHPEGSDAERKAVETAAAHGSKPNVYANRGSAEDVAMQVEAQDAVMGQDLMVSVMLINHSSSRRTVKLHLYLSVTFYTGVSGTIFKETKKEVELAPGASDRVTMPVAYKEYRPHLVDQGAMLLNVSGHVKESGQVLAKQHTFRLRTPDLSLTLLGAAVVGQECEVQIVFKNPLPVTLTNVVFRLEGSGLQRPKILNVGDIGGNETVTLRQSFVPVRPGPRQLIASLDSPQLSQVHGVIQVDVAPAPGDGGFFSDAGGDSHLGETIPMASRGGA

Row | SMILES | IC50 [1] | IC50 (FXIII) | IC50 (TG1)
1 | COC(=O)/C=C/CC[C@H](NC(=O)[C@H](CC(N)=O)NC(C)=O)C(=O)N[C@@H](CCC(=O)O)C(=O)N[C@@H](C)C(=O)N[C@H](C(=O)OC)C(C)C [Compound 7, N^α-acetyl-L-asparaginyl-{[(E)-(L)-6-amino-hept-2-ene-dicarboxylic acid]-1-methanoyl}-L-glutamyl-L-alaninyl-L-valine methyl ester] (Ac-N[X2]EAV-OMe) | > 50 µM | 2 µM | > 50 µM
2 | CCC(C)[C@H](NC(=O)[C@@H](NC(=O)[C@H](CC(C)C)NC(=O)[C@H](CO)NC(=O)[C@H](CC/C=C/C(=O)OC)NC(=O)CNC(=O)[C@@H]1CCCN1C(=O)CNC(=O)[C@H](CC(C)C)NC(C)=O)C(C)C)C(=O)NCC(=O)OC (stereo partly drawn) [Compound 8, N^α-acetyl-L-leucinyl-glycinyl-L-prolinyl-glycinyl-{[(E)-(L)-6-amino-hept-2-ene-dicarboxylic acid]-1-ethanoyl}-L-serinyl-L-leucinyl-L-valinyl-L-isoleucinyl-glycine methyl ester] (Ac-LGPG[X2]SLV[Ile(3ξ)]G-OMe) | > 50 µM | 0.5 µM | > 50 µM
